Test results reported in PubChem BioAssay (NCI).
“And” between values parts separate entries of the source, which are not always exact repeats. Equal values may be shown once.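 These data come from cells grown in 96-well plates and exposed to compound for 48 hours at five concentrations. At the GI50, growth is halved. TGI is the concentration that stops growth completely.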

Tests used:
Experiment in all cases: NCI tumour cell line growth inhibition, 48 h
NCI-H460 lung = system: NCI-H460 lung
HOP-62 NSCLC = system: HOP-62 NSCLC
RXF 393 renal = system: RXF 393 renal
SK-MEL-2 melanoma = system: SK-MEL-2 melanoma
NCI-H226 lung = system: NCI-H226 lung
SK-OV-3 ovarian = system: SK-OV-3 ovarian
KM20L2 colon = system: KM20L2 colon
KM12 colon = system: KM12 colon
COLO 205 colon = system: COLO 205 colon
DLD-1 colon = system: DLD-1 colon
CAKI-1 renal = system: CAKI-1 renal
SF-539 CNS = system: SF-539 CNS
A549 NSCLC = system: A549 NSCLC
SN12C renal = system: SN12C renal

SMILES: COC(=O)C1c2cc3c(c(O)c2C(O)CC1(C)O)C(=O)c1c(O)cc2c(c1C3=O)OC1OC2(C)C(O)C(N(C)C)C1O (stereo unspecified)
- TGI (NCI-H460 lung): > 100 µM
- TGI (HOP-62 NSCLC): > 100 µM
- TGI (RXF 393 renal): > 100 µM
- TGI (SK-MEL-2 melanoma): > 100 µM
- TGI (NCI-H226 lung): > 31.9 µM
- TGI (SK-OV-3 ovarian): > 27.8 µM
- TGI (KM20L2 colon): > 100 µM
- TGI (KM12 colon): > 19.9 µM
- TGI (COLO 205 colon): > 32.4 µM
- TGI (DLD-1 colon): > 100 µM
- TGI (CAKI-1 renal): 14.2 µM

SMILES: CCN(CC)CCO[Si](OCCN(CC)CC)(OCCN(CC)CC)OCCN(CC)CC
- TGI (NCI-H460 lung): > 100 µM
- TGI (RXF 393 renal): > 100 µM
- TGI (SF-539 CNS): > 100 µM
- TGI (SK-MEL-2 melanoma): > 100 µM
- TGI (NCI-H226 lung): > 100 µM
- TGI (SK-OV-3 ovarian): > 100 µM
- TGI (KM20L2 colon): > 100 µM
- TGI (A549 NSCLC): > 100 µM
- TGI (KM12 colon): > 100 µM
- TGI (COLO 205 colon): > 100 µM
- TGI (DLD-1 colon): > 100 µM
- TGI (CAKI-1 renal): > 100 µM
- TGI (SN12C renal): > 100 µM

SMILES: CCOC(=O)Cn1c(=O)c(C)cn(COCCO)c1=O
- TGI (NCI-H460 lung): > 100 µM
- TGI (HOP-62 NSCLC): > 100 µM
- TGI (RXF 393 renal): > 100 µM
- TGI (SF-539 CNS): > 100 µM
- TGI (SK-MEL-2 melanoma): > 100 µM
- TGI (NCI-H226 lung): > 100 µM
- TGI (A549 NSCLC): > 100 µM
- TGI (KM12 colon): > 100 µM
- TGI (COLO 205 colon): > 100 µM
- TGI (CAKI-1 renal): > 100 µM
- TGI (SN12C renal): > 100 µM

SMILES: CCOC(C)OC1CC(n2cc(C)c(=O)[nH]c2=O)OC1CO (stereo unspecified)
- TGI (NCI-H460 lung): > 100 µM
- TGI (HOP-62 NSCLC): > 100 µM
- TGI (RXF 393 renal): > 100 µM
- TGI (SF-539 CNS): > 100 µM
- TGI (SK-MEL-2 melanoma): > 100 µM
- TGI (NCI-H226 lung): > 100 µM
- TGI (SK-OV-3 ovarian): > 100 µM
- TGI (KM20L2 colon): > 100 µM
- TGI (A549 NSCLC): > 100 µM
- TGI (KM12 colon): > 100 µM
- TGI (COLO 205 colon): > 100 µM
- TGI (DLD-1 colon): > 100 µM
- TGI (SN12C renal): > 100 µM

SMILES: O=C(CCC1CCCCN1)Nc1ccc2c(c1)C(=O)c1ccc(NC(=O)CCN3CCCCC3)cc1C2=O (stereo unspecified)
- TGI (NCI-H460 lung): 23.9 µM
- TGI (HOP-62 NSCLC): 27.9 µM
- TGI (RXF 393 renal): 2.07 µM
- TGI (SF-539 CNS): 8.46 µM
- TGI (NCI-H226 lung): 18.6 µM
- TGI (SK-OV-3 ovarian): 70.1 µM
- TGI (KM20L2 colon): 14.5 µM
- TGI (A549 NSCLC): 33.4 µM
- TGI (KM12 colon): 6.99 µM
- TGI (COLO 205 colon): 2.65 µM
- TGI (DLD-1 colon): 6.37 µM
- TGI (CAKI-1 renal): 5.61 µM
- TGI (SN12C renal): 4.34 µM

SMILES: CC1OC(=O)C(C(C)C)NC(=O)C(C(C)C)OC(=O)C(C(C)C)NC(=O)C(C)OC(=O)C(C(C)C)NC(=O)C(C(C)C)OC(=O)C(C(C)C)NC(=O)C(C)OC(=O)C(C(C)C)NC(=O)C(C(C)C)OC(=O)C(C(C)C)NC1=O (stereo unspecified)
- GI50 (NCI-H460 lung): < 0.0001 µM
- TGI (NCI-H460 lung): 0.182 µM and 0.185 µM
- GI50 (HOP-62 NSCLC): < 0.0001 µM
- TGI (HOP-62 NSCLC): 0.0144 µM
- TGI (RXF 393 renal): 0.328 µM
- GI50 (SF-539 CNS): 0.000484 µM
- TGI (SF-539 CNS): 0.328 µM
- TGI (SK-MEL-2 melanoma): 0.167 µM
- TGI (NCI-H226 lung): 0.779 µM
- TGI (SK-OV-3 ovarian): 0.225 µM
- TGI (KM20L2 colon): 0.493 µM
- TGI (A549 NSCLC): 2.98 µM
- GI50 (KM12 colon): < 0.0001 µM
- GI50 (COLO 205 colon): < 0.0001 µM
- TGI (DLD-1 colon): 2.05 µM
- TGI (CAKI-1 renal): 0.00345 µM
- GI50 (SN12C renal): 0.00019 µM
- TGI (SN12C renal): 0.233 µM

SMILES: CN1CN(C(=O)N2CN(C)C(=O)N(C)C2)CN(C)C1=O
- TGI (HOP-62 NSCLC): > 100 µM
- TGI (SF-539 CNS): > 100 µM
- TGI (SK-MEL-2 melanoma): > 100 µM
- TGI (NCI-H226 lung): > 100 µM
- TGI (SK-OV-3 ovarian): > 100 µM
- TGI (KM20L2 colon): > 100 µM
- TGI (A549 NSCLC): > 100 µM
- TGI (KM12 colon): > 100 µM
- TGI (COLO 205 colon): > 100 µM
- TGI (DLD-1 colon): > 100 µM
- TGI (CAKI-1 renal): > 100 µM
- TGI (SN12C renal): > 100 µM
